Measurements published in patent publication US20260116910A1, “POLYCYCLIC COMPOUNDS AND METHODS THEREOF” (HEPAITECH (BEIJING) BIOPHARMA TECHNOLOGY CO., LTD., priority 2021, published 2026).

What was measured:
[1] = target: MRGPRX4 (Homo sapiens, UniProt Q96LA9); test: MRGPRX4 activation, Fluo-8 Ca2+ FLIPR assay in HEK293T cells stably expressing MRGPRX4; assay type: cell-based; details: for EC50: MRGPRX4 activation, Ca2+ fluorescence, no activation in tested range reported as III, read-out: Activity (EC50 μM)
In short: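 Response measured as dF/F0: 30 s baseline, then 150 s after compound addition on FLIPR Tetra, in HHBS after 40-60 min room-temperature loading with 2 μM Fluo-8 AM.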

[2] = target: T1, human FXR (NR1H4) (Homo sapiens, UniProt Q96RI1); test: Human FXR (NR1H4) agonist assessment, FXRE-NanoLuc reporter in HEK293T cells; assay type: cell-based; details: FXR activation, HEK293T FXRE-NanoLuc reporter, 24 hr; for EC50: read-out: EC50
T1 sequence (Q96RI1 1-476 isoform Q96RI1-1): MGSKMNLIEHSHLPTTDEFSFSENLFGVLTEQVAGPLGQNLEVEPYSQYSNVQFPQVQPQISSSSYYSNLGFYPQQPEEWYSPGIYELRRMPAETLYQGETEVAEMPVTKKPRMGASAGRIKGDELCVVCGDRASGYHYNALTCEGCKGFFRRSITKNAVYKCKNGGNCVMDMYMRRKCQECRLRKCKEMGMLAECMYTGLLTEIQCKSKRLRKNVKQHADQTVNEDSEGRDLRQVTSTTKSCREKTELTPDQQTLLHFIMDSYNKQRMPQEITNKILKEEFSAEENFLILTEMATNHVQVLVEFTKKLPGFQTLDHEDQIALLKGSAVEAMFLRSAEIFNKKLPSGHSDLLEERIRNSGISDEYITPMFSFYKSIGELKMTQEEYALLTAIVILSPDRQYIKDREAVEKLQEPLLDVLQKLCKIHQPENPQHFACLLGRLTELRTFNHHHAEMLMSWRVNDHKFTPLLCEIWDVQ
In short: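 Read-out was NanoLuc luminescence in culture medium, measured 5 min after adding coelenterazine. Cells were HEK293T stably carrying human FXR and an FXRE reporter, exposed to compound for 24 hr at 37 °C. Vehicle was 0.01% DMSO. EC50 was obtained from sigmoid fits of gradient dilutions.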

Chain of MRGPRX4 (Q96LA9 whole entry): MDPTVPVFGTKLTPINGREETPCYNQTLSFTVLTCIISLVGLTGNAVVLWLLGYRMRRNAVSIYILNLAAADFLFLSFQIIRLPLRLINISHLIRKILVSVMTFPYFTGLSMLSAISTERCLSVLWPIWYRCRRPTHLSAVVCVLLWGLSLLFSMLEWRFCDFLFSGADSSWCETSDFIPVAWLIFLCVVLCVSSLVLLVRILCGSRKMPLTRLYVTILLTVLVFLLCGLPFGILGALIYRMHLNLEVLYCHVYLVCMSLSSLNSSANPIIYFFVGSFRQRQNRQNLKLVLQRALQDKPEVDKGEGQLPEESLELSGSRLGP

| SMILES | MRGPRX4 activation, fluorescence change (dF/F0), Average ([1]; Conc. (Log[M]) −4) | MRGPRX4 activation, fluorescence change (dF/F0), Average ([1]; Conc. (Log[M]) −4.5) | MRGPRX4 activation, fluorescence change (dF/F0), Average ([1]; Conc. (Log[M]) −5) | MRGPRX4 activation, fluorescence change (dF/F0), Average ([1]; Conc. (Log[M]) −5.5) | MRGPRX4 activation, fluorescence change (dF/F0), Average ([1]; Conc. (Log[M]) −6) | MRGPRX4 activation, fluorescence change (dF/F0), Average ([1]; Conc. (Log[M]) −7) | MRGPRX4 activation, fluorescence change (dF/F0), Average ([1]; Conc. (Log[M]) −8) | MRGPRX4 activation, fluorescence change (dF/F0), Average ([1]; Conc. (Log[M]) −9) | EC50 [1] | Efficacy (maximum measured induction of NanoLuc, normalized to CDCA set as 100%) [2] | EC50 [2] |
| --- | --- | --- | --- | --- | --- | --- | --- | --- | --- | --- | --- |
| C[C@H](CCC(C)(C)O)[C@H]1CC[C@H]2[C@@H]3CC[C@@H]4CCCC[C@]4(C)[C@H]3CC[C@]12C [2-3] | 0.074 | 0.027 | −0.036 | −0.031 | −0.031 | −0.008 | −0.023 | −0.017 | > 100 µM | C (100%<efficacy <=300%) | 1 to 10 µM |
| CC[C@H]1[C@@H](O)[C@@H]2[C@H](CC[C@]3(C)[C@@H]([C@H](C)CC#N)CC[C@@H]23)[C@@]2(C)CCCC[C@@H]12 [2-4] | 0.008 | −0.025 | −0.026 | −0.018 | −0.037 | −0.025 | −0.038 | −0.037 | > 100 µM | C (100%<efficacy <=300%) | > 10 µM |
| CC[C@H]1[C@@H](O)[C@@H]2[C@H](CC[C@]3(C)[C@@H]([C@H](C)CCO)CC[C@@H]23)[C@@]2(C)CCCC[C@@H]12 [2-5] | – | – | – | – | – | – | – | – | > 100 µM | A (efficacy >400%) | 1 to 10 µM |
| CC[C@H]1[C@@H](O)[C@@H]2[C@H](CC[C@]3(C)[C@@H]([C@H](C)CCCOS(=O)(=O)O)CC[C@@H]23)[C@@]2(C)CCCC[C@@H]12 [2-6] | – | – | −0.047 | – | – | – | – | – | 50 to 100 µM | B (300%<efficacy <=400%) | 1 to 10 µM |
| CC[C@H]1[C@@H](OC(=O)c2cccc(I)c2)[C@@H]2[C@H](CC[C@]3(C)C([C@H](C)CCC(=O)OC)=CC[C@@H]23)[C@@]2(C)CCCC[C@@H]12 [3-1] | 0.008 | 0.004 | −0.027 | −0.004 | −0.017 | 0.005 | 0.001 | −0.001 | > 100 µM | C (100%<efficacy <=300%) | 1 to 10 µM |
| CC[C@H]1[C@@H](OC(=O)c2cccc(I)c2)[C@@H]2[C@H](CC[C@]3(C)C([C@H](C)CCC(=O)OC)=CC(=O)[C@@H]23)[C@@]2(C)CCCC[C@@H]12 [3-2] | 0.130 | 0.023 | −0.003 | −0.034 | 0.008 | −0.014 | −0.016 | −0.035 | > 100 µM | C (100%<efficacy <=300%) | > 10 µM |
| CC[C@H]1[C@@H](OC(=O)c2cccc(I)c2)[C@H]2[C@@H]3[C@@H](O)C=C([C@H](C)CCC(=O)OC)[C@@]3(C)CC[C@@H]2[C@@]2(C)CCCC[C@@H]12 [3-3] | 0.041 | 0.052 | −0.045 | −0.013 | −0.015 | −0.015 | −0.031 | −0.014 | > 100 µM | C (100%<efficacy <=300%) | > 10 µM |
| CC[C@H]1[C@@H](O)[C@@H]2[C@H](CC[C@]3(C)[C@@H]([C@H](C)CCC(=O)NS(=O)(=O)C(C)(C)C)CC[C@@H]23)[C@@]2(C)CCCC[C@@H]12 [4-1] | 0.057 | 0.035 | −0.037 | −0.013 | 0.002 | 0.009 | 0.004 | 0.005 | > 100 µM | B (300%<efficacy <=400%) | < 1 µM |
| CC[C@H]1[C@@H](O)[C@@H]2[C@H](CC[C@]3(C)[C@@H]([C@H](C)CCC(=O)NS(=O)(=O)CC)CC[C@@H]23)[C@@]2(C)CCCC[C@@H]12 [4-2] | 0.113 | −0.013 | −0.006 | 0.015 | −0.006 | 0.009 | 0.009 | 0.002 | > 100 µM | B (300%<efficacy <=400%) | < 1 µM |
| CC[C@H]1[C@@H](O)[C@@H]2[C@H](CC[C@]3(C)[C@@H]([C@H](C)CC(=O)NS(=O)(=O)C(C)(C)C)CC[C@@H]23)[C@@]2(C)CCCC[C@@H]12 [4-3] | – | – | – | – | – | – | – | – | > 100 µM | B (300%<efficacy <=400%) | 1 to 10 µM |
| CC[C@H]1[C@@H](O)[C@@H]2[C@H](CC[C@]3(C)[C@@H]([C@H](C)CCNC(=O)NS(=O)(=O)c4ccc(C(C)(C)C)cc4)CC[C@@H]23)[C@@]2(C)CCCC[C@@H]12 [5-1] | – | – | – | – | – | – | – | – | > 100 µM | B (300%<efficacy <=400%) | < 1 µM |
| CC[C@H]1[C@@H](O)[C@@H]2[C@H](CC[C@]3(C)[C@@H]([C@H](C)CCNC(=O)NS(=O)(=O)c4ccc(C(C)(C)CO)cc4)CC[C@@H]23)[C@@]2(C)CCCC[C@@H]12 [5-2] | 0.087 | 0.030 | 0.023 | 0.027 | 0.023 | 0.020 | – | – | > 100 µM | A (efficacy >400%) | < 1 µM |
